{"source": "patent US6022895A", "about": "“Substituted amino compounds and their use as substances having an analgesic effect” (priority 1997, dated 2000)", "key": {"δ opiate receptor": {"target": "T1, δ opiate receptor (Rattus norvegicus, UniProt P33533)", "T1 construct": "The rat brain, which was freshly prepared in each case, was homogenized; from tissue; host or cells: brain of male Wistar rats, without the cerebellum, pons and medulla oblongata (membrane homogenate)", "T1 sequence (P33533 whole entry)": "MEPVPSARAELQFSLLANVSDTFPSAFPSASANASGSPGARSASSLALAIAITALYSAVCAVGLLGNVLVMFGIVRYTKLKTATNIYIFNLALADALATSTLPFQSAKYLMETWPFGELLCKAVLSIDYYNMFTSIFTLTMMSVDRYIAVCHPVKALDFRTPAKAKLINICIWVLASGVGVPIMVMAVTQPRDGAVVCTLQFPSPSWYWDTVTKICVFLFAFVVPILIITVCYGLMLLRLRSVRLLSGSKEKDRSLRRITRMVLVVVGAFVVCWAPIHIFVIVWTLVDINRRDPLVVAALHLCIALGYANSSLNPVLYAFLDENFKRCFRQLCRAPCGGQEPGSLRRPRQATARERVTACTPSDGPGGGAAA", "assay": "δ opiate receptor binding (displacement of (3H)-2-D-ala-deltorphin II, rat brain membrane homogenate)", "parameters": "species or system male Wistar rats", "details": "mean values ± standard deviations of ≥3 independent tests; 1 nmole/l (3H)-2-D-ala-deltorphin II; pH 7.4; 90 minutes at 37° C.; Ki from IC50 by Cheng-Prussoff equation", "procedure": "δ Opiate Receptor Binding Investigations\nTests to determine the affinity of the compounds of formula (I) according to the invention for the δ opiate receptor were performed on meninx homogenates (a homogenate of the brain of male Wistar rats, without the cerebellum, pons and medulla oblongata).\nThe rat brain, which was freshly prepared in each case, was homogenized for this purpose, while being cooled in ice, in 50 mmoles/l Tris-HCl (pH 7.4) and was centrifuged for 10 minutes at 5000 g and 4° C. After decanting and discarding the supernatant liquor, and taking up and homogenising the membrane sediment again in […] Tris-HCl (pH 7.4), the homogenate was subsequently centrifuged for 20 minutes at 20,000 g and 4° C. This washing step was repeated once more. Thereafter, the supernatant liquor was decanted, the membrane sediment was homogenized in cold 50 mmoles/l Tris-HCl, 20% glycerol (w/v), 0.01% bacitracin (w/v) (pH 7.4), and was frozen in aliquots until testing was performed. For the receptor binding tests, the aliquots were thawed and diluted 1:10 with the binding test buffer.\n50 mmoles/l Tris-HCl, 5 mmoles/l MgCl2 (pH 7.4) supplemented with 0.1% (w/v) bovine serum albumin, with 1 nmole/l (^3 H)-2-D-ala-deltorphin II as the radioactive ligand, was used as the buffer in the binding test. The proportion of non-specific binding was determined in the presence of 10 μmoles/l naloxone.\nIn further batches, the compounds according to the invention were added in a series of concentrations and the displacement of the radioactive ligand from its specific binding was determined. The respective triple batches were incubated for 90 minutes at 37° C. and were subsequently harvested by means of filtration through glass fiber filters (GF/B) for the determination of the radioactive ligand bound to the membrane homogenate. The radioactivity of the glass fiber filter discs was measured in a β-counter after adding a scintillator.\nThe affinity of the compounds according to the invention for the δ opiate receptor was calculated by the mass action law, by means of non-linear regression, as the IC50 value. Ki values were calculated from the IC50 values using the Cheng-Prussoff equation. The Ki values are given as mean values ± standard deviations of ≥3 tests which were independent of each other."}, "μ-receptors": {"tested_on": "μ-receptors", "details": "background statement; cited from earlier work"}}, "note": "Where a name gives a salt, the structure may show the parent alone.", "data": [{"smiles": "CN(C)CC1=C(c2cccc(O)c2)c2cc(Oc3ccccc3)ccc2CC1", "note": "[Example 8, 3-(2-dimethylaminomethyl-7-phenoxy-3,4-dihydro-naphth-1-yl)-phenol hydrochloride]", "values": [{"measurement": "Ki", "setting": "δ opiate receptor", "result": "25.7 ± 10.2", "unit": "nM"}]}, {"smiles": "CN(C)CC1=C(c2cccc(O)c2)c2ccc3ccccc3c2CC1", "note": "[Example 2j, 3-(2-dimethylaminomethyl-3,4-dihydro-phenanthren-1-yl)-phendlydrochloride]", "values": [{"measurement": "Ki", "setting": "δ opiate receptor", "result": "80.8 ± 29.7", "unit": "nM"}]}, {"smiles": "CN(C)CC1=C(c2cccc(O)c2)c2cc(-c3ccccc3)ccc2CC1", "note": "[Example 9b, 3-(2-dimethylaminomethyl-7-phenyl-3,4-dihydronaphth-1-yl)-phenol hydrochloride]", "values": [{"measurement": "Ki", "setting": "δ opiate receptor", "result": "39.3 ± 2.2", "unit": "nM"}]}, {"smiles": "COc1cccc2c1CCC(CN(C)C)=C2c1cccc(O)c1", "note": "[Example 9a, 3-(2-dimethylaminomethyl-5-methoxy-3,4-dihydronaphth-1-yl)-phenol hydrochloride]", "values": [{"measurement": "Ki", "setting": "δ opiate receptor", "result": "23.9 ± 0.9", "unit": "nM"}]}, {"smiles": "CN(C)CC1=C(c2cccc(O)c2)c2ccc(O)cc2CC1", "note": "[Example 6, 6-dimethylaminomethyl-5-(3-hydroxy-phenyl)-7,8-dihydro-naphth-2-ol hydrochloride]", "values": [{"measurement": "Ki", "setting": "δ opiate receptor", "result": "40.9 ± 6.7", "unit": "nM"}]}, {"smiles": "C=CCN(C)CC1=C(c2cccc(O)c2)c2ccccc2CCC1", "note": "[Example 10, 3-{6-[allyl-methyl-amino)-methyl]-8,9-dihydro-7H-benzocyclohepten-5-yl}-phenol hydrochloride]", "values": [{"measurement": "Ki", "setting": "δ opiate receptor", "result": "679 ± 214", "unit": "nM"}]}, {"smiles": "CN(CCc1ccccn1)CC1=C(c2cccc(O)c2)c2ccccc2CCC1", "note": "[Example 2h, 3-(6-{[methyl-(2-pyridin-2-yl-ethyl)-amino]-methyl)-8,9-dihydro-7H-benzocyclohepten-5-yl)-phenol dihydrochloride]", "values": [{"measurement": "Ki", "setting": "δ opiate receptor", "result": "223 ± 86", "unit": "nM"}]}, {"smiles": "CCCCc1ccc2c(c1)C(c1cccc(O)c1)=C(CN(C)C)CC2", "note": "[Example 9c, 3-(7-n-butyl-2-dimethylaminomethyl-3,4-dihydronaphth-1-yl)-phenol hydrochloride]", "values": [{"measurement": "Ki", "setting": "δ opiate receptor", "result": "42.2 ± 16", "unit": "nM"}]}, {"smiles": "CN(C)CC1=C(c2cccc(O)c2)c2ccccc2CCCC1", "note": "[Example 2f, 3-(6-dimethylaminomethyl-7,8,9,10-tetrahydrobenzocycloocten-5-yl)-phenol h ydrochloride]", "values": [{"measurement": "Ki", "setting": "δ opiate receptor", "result": "46.3 ± 10.1", "unit": "nM"}]}, {"smiles": "C/C(CN(C)C)=C(\\c1ccc(-c2ccccc2)cc1)c1cccc(O)c1", "note": "[Example 11b, Z-3-(1-biphenyl-4-yl-3-dimethylamino-2-methyl-propenyl)-phenol hydrochloride]", "values": [{"measurement": "Ki", "setting": "δ opiate receptor", "result": "23.7 ± 1.7", "unit": "nM"}]}, {"smiles": "CN(CC1=C(c2cccc(O)c2)c2ccccc2CCC1)Cc1ccccc1", "note": "[Example 2e, 3-{6-[(benzyl-methyl-amino)-methyl]-8,9-dihydro-7H-benzocyclohepten-5-yl}-phenol hydrochloride]", "values": [{"measurement": "Ki", "setting": "δ opiate receptor", "result": "936 ± 32", "unit": "nM"}]}, {"smiles": "COc1ccc2c(c1)CCC(CN(C)C)=C2c1ccccc1", "note": "[Example 3, (6-methoxy-1-phenyl-3,4-dihydro-naphth-2-ylmethyl)-dimethylamine hydrochloride]", "values": [{"measurement": "Ki", "setting": "δ opiate receptor", "result": "456 ± 62", "unit": "nM"}]}, {"smiles": "CN(CC1=C(c2cccc(O)c2)c2ccccc2CCC1)CC1CC1", "note": "[Example 2g, 3-{6-[(cyclopropylmethyl-methyl-amino)-methyl]-8,9-dihydro-7H-benzocyclohepten-5-yl}-phenol hydrochloride]", "values": [{"measurement": "Ki", "setting": "δ opiate receptor", "result": "182 ± 12", "unit": "nM"}]}, {"smiles": "CCN(CC)CC1=C(c2cccc(O)c2)c2ccccc2CCC1", "note": "[Example 2b, 3-(6-diethylaminomethyl-8,9-dihydro-7H-benzocyclohepten-5-yl)-phenol hydrochloride]", "values": [{"measurement": "Ki", "setting": "δ opiate receptor", "result": "728 ± 146", "unit": "nM"}]}, {"smiles": "CN(C)CC1=C(c2cccc(O)c2)c2ccccc2C1", "note": "[Example 2i, 3-(2-dimethylaminomethyl-3H-inden-1-yl)-phenol hydrochloride]", "values": [{"measurement": "Ki", "setting": "δ opiate receptor", "result": "157 ± 16", "unit": "nM"}]}, {"smiles": "CN(CCc1ccccc1)CC1=C(c2cccc(O)c2)c2ccccc2CCC1", "note": "[Example 2d, 3-{6-[(methyl-phenethyl-amino)-methyl]-8,9-dihydro-7H-benzocyclohepten-5-yl}-phenol hydrochloride]", "values": [{"measurement": "Ki", "setting": "δ opiate receptor", "result": "54.3 ± 8.2", "unit": "nM"}]}, {"smiles": "CN(C)CC1=C(c2cccc(O)c2)c2ccccc2CCC1", "note": "[Example 2a, 3-(6-dimethylaminomethyl-8,9-dihydro-7H-benzo-cyclohepten-5-yl)-phenol hydrochloride]", "values": [{"measurement": "Ki", "setting": "δ opiate receptor", "result": "17.2 ± 4.3", "unit": "nM"}]}, {"smiles": "COc1cccc2c1CCC(CN(C)C)=C2c1ccccc1", "note": "[Example 4, (5-methoxy-1-phenyl-3,4-dihydro-naphth-2-ylmethyl)-dimethylamine hydrochloride]", "values": [{"measurement": "Ki", "setting": "δ opiate receptor", "result": "517 ± 45", "unit": "nM"}]}, {"smiles": "CN1CC[C@]23c4c5ccc(O)c4O[C@H]2[C@@H](O)C=C[C@H]3[C@H]1C5", "note": "[morphine]", "values": [{"measurement": "selective binding to μ-receptors", "setting": "μ-receptors", "result": "selectively binds to what are termed μ-receptors"}]}, {"smiles": "CC(CN(C)C)=C(c1cccc(O)c1)c1cccc(O)c1", "note": "[Example 11a, 3-[3-dimethylamino-1-(3-hydroxyphenyl)-2-methyl-propenyl]-phenol hydrochloride]", "values": [{"measurement": "Ki", "setting": "δ opiate receptor", "result": "34 ± 5.8", "unit": "nM"}]}, {"smiles": "CN(C)CC1=C(c2cccc(O)c2)c2ccccc2CC1", "note": "[Example 1, 3-(2-dimethylaminomethyl-3,4-dihydro-naphth-1-yl)-phenol hydrochloride]", "values": [{"measurement": "Ki", "setting": "δ opiate receptor", "result": "55.8 ± 4.6", "unit": "nM"}]}, {"smiles": "CCCN(CCC)CC1=C(c2cccc(O)c2)c2ccccc2CCC1", "note": "[Example 2c, 3-(6-di-n-propylaminomethyl-8,9-dihydro-7H-benzocyclohepten-5-yl)-phenol h ydrochloride]", "values": [{"measurement": "Ki", "setting": "δ opiate receptor", "result": "294 ± 106", "unit": "nM"}]}]}
